Patent publication US8759031B2, “Type I polyketide synthase extender units” (priority 2007, dated 2014)
Like-named read-outs stand apart in the source and are kept apart here.

Legend:
ZmaJ [1] = target: T1, ZmaJ (Bacillus cereus, UniProt Q7BQ71)
Method: ATP-PPi exchange assays were performed as previously described (Thomas et al., 2002, Chem. Biol. 9: 171-184). Reactions for amino acid specificity contained 70 nM ZmaJ and 1 mM of the following amino acids: L-Ser, L-2,3-diaminopropionate, L-Thr, Gly, and L-Cys. To determine the kinetic parameters of ZmaJ activation of L-Ser, 100 μL reactions containing 70 nM ZmaJ, 3.5 mM ATP, and varying concentrations of L-Ser (0.35 to 10 mM), in triplicate, were incubated for 10 min prior to stopping the reactions.

N[C@@H](CO)C(=O)O = assay: purified protein, by the assay type; conditions: other: 70 nM ZmaJ, 3.5 mM ATP, L-Ser 0.35 to 10 mM, 10 min, triplicate
Method: ZmaJ used in these assays was purified by an additional anion exchange chromatography step, which had no effect on seryl-ZmaH formation. […] Reactions for amino acid specificity contained 70 nM ZmaJ and 1 mM of the following amino acids: L-Ser, L-2,3-diaminopropionate, L-Thr, Gly, and L-Cys. To determine the kinetic parameters of ZmaJ activation of L-Ser, 100 μL reactions containing 70 nM ZmaJ, 3.5 mM ATP, and varying concentrations of L-Ser (0.35 to 10 mM), in triplicate, were incubated for 10 min prior to stopping the reactions. The reactions were in the linear range for enzyme concentration and less than 10% substrate-to-product conversion.

ZmaN = assay: Formation of glyceryl-ZmaD (ZmaN-catalyzed modification of holo-ACP, HPLC analysis); assay type: biochemical, Bacillus cereus; conditions: 50 μM 3-PG, ATP
Method: Control reactions were run without ZmaN, ATP, or with 2 U of 3-PGPK (Sigma). A time course comparing reactions with and without 3-PGPK contained 50 μM 3-PG, and the reactions were run for 0.5, 2.0, 5.0, and 10 min.
Reactions containing glyceraldehyde-3-phosphate (150 μl final volume) contained: 12.5 μM holo-ZmaD, 75 mM Tris pH 7.5, 10 mM MgCl2, 1 mM TCEP, 100 mM NaCl, 500 μM CoA, 1 μM Sfp, 250 μM DL-glyceraldehyde-3-phosphate (Sigma), 1 U GAPDH (Sigma), and 1 μM ZmaN were run for 40 min at 22° C. Control reactions without GAPDH, DL-glyceraldehyde-3-phosphate, Sfp, or ZmaN were run, as well as control reactions in which holo-ZmaH replaced holo-ZmaD.

ZmaJ [2] = target: T1, ZmaJ; conditions: 10 μM holo-ZmaD replaced holo-ZmaH; L-serine, ATP
Method: Reaction mixtures (130 or 260 μl) contained: 10 μM holo-ZmaH, 58 mM Tris pH 7.5, 8 mM MgCl2, 0.8 mM TCEP, 385 μM CoA, 0.8 μM Sfp, 250 μM L-serine, 5 mM ATP, and 1 μM ZmaJ. The reaction mixtures were incubated at 22° C. for 1 hour. To test whether seryl-ZmaD could be formed, 10 μM holo-ZmaD replaced the 10 μM holo-ZmaH in a 130 μL reaction mixture.
In this experiment, 100-200 μl of apo- or holo-ZmaH or 130-200 μl of aminoacylated ZmaH reaction products was injected, and products were separated using the same method as above.

T1 sequence (Q7BQ71 whole entry): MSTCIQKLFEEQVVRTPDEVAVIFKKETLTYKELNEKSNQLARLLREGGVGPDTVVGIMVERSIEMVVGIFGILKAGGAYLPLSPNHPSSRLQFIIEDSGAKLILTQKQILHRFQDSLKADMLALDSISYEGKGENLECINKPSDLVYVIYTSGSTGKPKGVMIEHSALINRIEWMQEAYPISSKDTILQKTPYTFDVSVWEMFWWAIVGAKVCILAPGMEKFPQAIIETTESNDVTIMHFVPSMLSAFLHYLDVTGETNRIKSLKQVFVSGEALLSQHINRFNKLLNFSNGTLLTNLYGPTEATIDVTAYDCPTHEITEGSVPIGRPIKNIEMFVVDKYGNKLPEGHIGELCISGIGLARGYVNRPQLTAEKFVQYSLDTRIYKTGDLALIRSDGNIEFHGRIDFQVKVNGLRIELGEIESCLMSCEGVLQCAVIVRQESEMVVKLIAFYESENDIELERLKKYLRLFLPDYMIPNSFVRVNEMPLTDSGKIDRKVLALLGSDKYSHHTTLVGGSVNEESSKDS
ZmaN, sequence (as listed by the source, one chain of several): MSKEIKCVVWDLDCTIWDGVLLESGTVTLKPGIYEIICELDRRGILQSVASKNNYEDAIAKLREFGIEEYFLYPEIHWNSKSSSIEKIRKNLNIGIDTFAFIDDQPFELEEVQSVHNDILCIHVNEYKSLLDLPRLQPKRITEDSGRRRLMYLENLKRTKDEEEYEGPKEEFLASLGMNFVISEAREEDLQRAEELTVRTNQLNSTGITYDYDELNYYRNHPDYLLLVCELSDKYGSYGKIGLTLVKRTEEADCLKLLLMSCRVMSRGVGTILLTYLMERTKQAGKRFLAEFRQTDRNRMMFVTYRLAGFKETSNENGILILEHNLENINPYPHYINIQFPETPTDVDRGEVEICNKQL

NCC(=O)O [Gly]
amino acid substrate specificity of ZmaJ (activation) (ZmaJ [1]): activated only L-Ser

N[C@@H](CS)C(=O)O [L-Cys]
amino acid substrate specificity of ZmaJ (activation) (ZmaJ [1]; 70 nM ZmaJ, 1 mM amino acid): activated only L-Ser

N[C@@H](CO)C(=O)O [L-Ser, L-serine]
amino acid substrate specificity of ZmaJ (activation) (ZmaJ [1]; 70 nM ZmaJ, 1 mM amino acid): activated only L-Ser

C[C@@H](O)[C@H](N)C(=O)O [L-Thr]
amino acid substrate specificity of ZmaJ (activation) (ZmaJ [1]; 70 nM ZmaJ, 1 mM amino acid): activated only L-Ser

L-2,3-diaminopropionate
amino acid substrate specificity of ZmaJ (activation) (ZmaJ [1]; 70 nM ZmaJ, 1 mM amino acid): activated only L-Ser

ZmaJ (Bacillus cereus)
Km (N[C@@H](CO)C(=O)O): 1800 ± 200 µM | kcat (N[C@@H](CO)C(=O)O): 0.7 ± 0.033 s⁻¹

B1: holo-ZmaD: acyl carrier protein ZmaD (SEQ ID NO:2) phosphopantetheinylated in vitro by Sfp (protein, listed as Bacillus cereus)
chain: MDNHEKIRQYIKKNLIIFNAEETIVANDENIFEKGYVNSLFAMQMLNFIETEFDIVVDNDELDIINFSTINNMVDLINKKKNGNFTV
modifications: phosphopantetheinylated
rate of holo-ZmaD modification (ZmaN; with 3-PGPK): 1.44 nmol/min | rate of holo-ZmaD modification (ZmaN; without 3-PGPK): 0.08 nmol/min | aminoacylation by ZmaJ (seryl-ACP formation) (ZmaJ [2]): not able to aminoacylate
